Results: PubChem BioAssay (NCI)
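Interpolation was linear, between the two tested concentrations surrounding the appropriate level; five concentrations were tested over 48 hours in 96-well plates. At the GI50, growth is halved. TGI marks complete inhibition of growth.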

Experiments:
Test in all cases: NCI tumour cell line growth inhibition, 48 h
786-0 renal = tested on: 786-0 renal
A549 NSCLC = tested on: A549 NSCLC
IGROV1 ovarian = tested on: IGROV1 ovarian
OVCAR-3 ovarian = tested on: OVCAR-3 ovarian
SK-OV-3 ovarian = tested on: SK-OV-3 ovarian
SNB-19 CNS = tested on: SNB-19 CNS
SNB-75 CNS = tested on: SNB-75 CNS
BT-549 breast = tested on: BT-549 breast
MCF7 breast = tested on: MCF7 breast
MDA-MB-231 breast = tested on: MDA-MB-231 breast

Row | SMILES | TGI (786-0 renal) [µM] | TGI (A549 NSCLC) [µM] | TGI (IGROV1 ovarian) [µM] | TGI (OVCAR-3 ovarian) [µM] | TGI (SK-OV-3 ovarian) [µM] | TGI (SNB-19 CNS) [µM] | TGI (SNB-75 CNS) [µM] | GI50 (786-0 renal) [µM] | GI50 (A549 NSCLC) [µM] | GI50 (BT-549 breast) [µM] | TGI (BT-549 breast) [µM] | GI50 (IGROV1 ovarian) [µM] | GI50 (MCF7 breast) [µM] | TGI (MCF7 breast) [µM] | GI50 (MDA-MB-231 breast) [µM] | TGI (MDA-MB-231 breast) [µM] | GI50 (OVCAR-3 ovarian) [µM] | GI50 (SK-OV-3 ovarian) [µM] | GI50 (SNB-19 CNS) [µM] | GI50 (SNB-75 CNS) [µM]
1 | O=C1OC2(c3ccccc3Oc3ccccc32)c2ccccc21 | > 100 | > 100 | > 100 | > 100 | > 100 | > 100 | > 100 |  |  |  |  |  |  |  |  |  |  |  |  | 
2 | S=C(N/N=C/c1ccccn1)Nc1ccccn1 | 36.4 | 76.6 | > 100 | 3.14 | > 100 | > 100 |  | 2.58 | 2.34 | 1.99 | > 100 | 3.17 | 0.472 | > 100 | 0.642 | > 100 | 0.327 | 2.29 | 2.16 | 
3 | O=C(c1ccccc1)c1c(C(=O)c2ccccc2)c(-c2ccccc2)c2c(-c3ccccc3)sc(-c3ccccc3)c2c1-c1ccccc1 | > 100 | > 100 | > 100 | > 100 | > 100 | > 100 | > 100 |  |  |  |  |  |  |  |  |  |  |  |  | 
4 | O=C1C(=O)N(c2ccc(Cl)c(Cl)c2)C(=O)C(=O)C1c1nc2ccccc2o1 | > 100 | > 100 | > 100 | > 100 | > 100 | > 100 | > 100 |  |  |  |  |  |  |  |  |  |  |  |  | 
5 | Cc1cc(S(=O)(=O)Nc2nnc(-c3ccccc3)c(-c3ccccc3)n2)c(SCc2ccccc2)cc1Cl | 29.8 | > 100 | > 100 | 34.8 |  | 52.7 | 49 | 14.5 | 27.7 | 18.9 | 41.8 | 37.3 | 24 | 54.2 | 20.2 | 41.9 | 17.9 |  | 25.7 | 29.4
6 | O=S1(=O)C[C@@H](O)[C@H](O)CS1 | > 100 | > 100 | > 100 | > 100 | > 100 | > 100 | > 100 |  |  |  |  |  |  |  |  |  |  |  |  | 
7 | CS(=O)c1ccc(COP(N)(=O)N(CCCl)CCCl)cc1 (centres undefined) | > 100 | > 100 | > 100 | > 100 | > 100 | > 100 | > 100 |  |  |  |  |  |  |  |  |  |  |  |  | 
8 | COc1ccc2ccc([Se]c3ccc4ccc(OC)cc4c3)cc2c1 | > 100 | > 100 | > 100 | > 100 | > 100 | 68.8 | 76.8 |  |  |  |  |  |  |  |  |  |  |  |  | 
9 | CC1(C)OCC(CO)(Nc2nc(N3CC3)nc(N3CC3)n2)CO1 | 18.7 | 34.3 | 58.5 | 49.4 | 34.2 | 62.1 | 33.1 |  |  |  | 93.5 |  |  |  |  |  |  |  |  | 
10 | CN(C)c1ccc2c3c(c(=O)oc2c1)CCC3 | > 100 | > 100 | > 100 | > 100 |  | > 100 |  |  |  |  | > 100 |  |  | > 100 |  | > 100 |  |  |  | 
11 | Nc1ccccc1C#C/C=C\C#Cc1ccc(Cl)cc1Cl | 27.4 | 44.2 | 38.7 | 17.9 | 80.5 |  |  | 13.5 | 16 | 12.4 | 28.7 | 14.8 | 3.52 | 39.7 | 15.8 | 35.6 | 5.19 | 27.8 |  | 
12 | CCOC(=O)C(C)c1cc(C2(C)OCCO2)c(C)o1 (centres undefined) | > 100 | > 100 | > 100 | > 100 | > 100 | > 100 | > 100 |  |  |  |  |  |  |  |  |  |  |  |  | 
13 | COc1ccc2[nH]c(Cl)c(/C=C3/C(=O)N(C)c4ccccc43)c2c1 | > 100 | > 100 | > 100 | > 100 | > 100 | > 100 |  | > 100 | > 100 | > 100 | > 100 | > 100 | > 100 | > 100 | 36.5 | > 100 | 55.1 | 77.4 | 48.9 | 
14 | O=C([CH-]C(=O)c1ccccc1)c1ccccc1.O=C([CH-]C(=O)c1ccccc1)c1ccccc1.[Nd+3].[OH-].[OH3+] | 33.7 | 51.5 | 61.2 | 26.6 | 48.2 | 44.9 | 7.25 | 7.79 | 17.2 |  |  | 11.5 |  |  |  |  | 8.31 | 14.5 | 8.19 | 2.49
15 | CC(C(=O)Oc1ccc2ccccc2c1-c1c(O)ccc2ccccc12)c1ccccc1 (centres undefined) | 29.3 | 30 | 34.9 | 26.6 | 29.6 | 28.4 |  |  |  |  |  |  |  |  |  |  |  |  |  | 
16 | CCOC(=O)C1C(=O)c2ccccc2CN1Cc1ccccc1 (centres undefined) | > 100 | > 100 | > 100 | > 100 | > 100 | > 100 | > 100 |  |  |  |  |  |  |  |  |  |  |  |  | 
17 | c1ccc(N=C2c3ccccc3C3=NCCCN32)cc1 | > 100 | > 100 | > 100 | > 100 |  | > 100 | > 100 |  |  |  |  |  |  |  |  |  |  |  |  | 
18 | CC[N+](CC)(CC)CCCn1c2c(c3ccccc3c1=O)C(=O)c1ccccc1-2 | 32 | 35.8 | 24.1 | 50.2 | > 100 | > 100 | > 100 | 7.35 | 6.27 |  |  | 3.1 | 2.89 | 7.4 | 17.6 | 84.2 | 9.05 | 52.6 | 31.6 | 80
19 | COC(=O)c1nc(NC#N)[nH]c(=O)c1C | > 100 | > 100 | > 100 | > 100 | > 100 | > 100 | > 95.4 |  |  |  |  |  |  |  |  |  |  |  |  | 
20 | CC1NOC(=O)C1N=Nc1ccccc1Cl (centres undefined) | > 100 | > 100 | > 100 | > 100 | 94.4 | > 100 | 62.4 |  |  |  |  |  |  |  |  |  |  |  |  | 
21 | CC(=O)Nc1ccc(C2[C@H]3C(=O)N(c4ccc(Cc5ccc(N6C(=O)[C@@H]7ON(c8ccccc8)C(c8ccc(NC(C)=O)cc8)[C@@H]7C6=O)cc5)cc4)C(=O)[C@H]3ON2c2ccccc2)cc1 (some centres undefined) | > 100 | > 100 | > 100 | > 100 | > 100 | > 100 | > 100 |  |  |  |  |  |  |  |  |  |  |  |  | 
22 | O=c1cc2ccccc2nn1-c1ccccc1Cl | > 100 | > 100 | > 100 | > 100 | > 100 | > 100 | > 100 |  |  |  |  |  |  |  |  |  |  |  |  | 
